Data as given in US20210386733A1, “LYSINE-SPECIFIC HISTONE DEMETHYLASE INHIBITORS FOR THE TREATMENT OF MYELOPROLIFERATIVE NEOPLASMS” (Imago Biosciences, Inc., priority 2019, published 2021).
Counter-ions that a name gives are not always drawn.

Legend:
[1] = test system: somatic mutations in myeloid neoplasm genes (JAK2, CALR, MPL, ASXL1 etc.); assay: Sequencing of somatic mutations, variant allele frequency (VAF) in treated patients (Example 3); assay type: in vivo, human
From the text: The following characterize the sequencing protocol: • Samples: Germline (buccal or hair) and “Tumor” (bone marrow, peripheral blood, granulocytes) • Target enrichment: 11,736 hybridization probes in IDT AML panel targeting 261 genes (˜6300 exons) recurrently mutated in myeloid neoplasms • Illumina sequencing: 2×150 bp paired-end sequencing; ˜10 million pairs sequenced per sample • Aiming for sequencing depth >500; Actual: >1000 for >90% of samples • Analysis: Burrows-Wheeler alignment (BWA)=>VARSCAN2 genotyper=>IGV for CALR, etc. • Cutoffs for somatic calls: Sequencing Depth: >20 Mutant (or Variant) Allele Frequency (VAF): >15% • Annotation: All calls submitted to CADD (Combined Annotation Dependent Depletion) at University of Washington • CADD score cutoff >20 identifies the top 1% of the most deleterious mutations

[2] = test system: patients with high-risk MF; assay: Phase 1/2A clinical trial of Compound 1 in myelofibrosis (Example 1); assay type: in vivo, human
From the text: A multi-center, open-label study evaluating the safety, tolerability, steady-state pharmacokinetics and pharmacodynamics of Compound 1 administered orally once daily in patients with high-risk MF, including primary myelofibrosis (PMF), post-polycythemia vera myelofibrosis (PPV-MF), and post-essential thrombocythemia myelofibrosis (PET-MF) (collectively referred to as ‘MF’) was initiated as a Phase 1/2A study, and was expanded to a Phase 2b study.
The Phase 1/2A portion of the study assessed: the safety of the original starting dose, 0.25 mg/kg/d; an 85-day duration of treatment with a subsequent washout period of up to 28 days; and, pharmacokinetic and drug concentration measurements. […] With transition to a Phase 2b study, changes supported by the earlier pharmacokinetic and pharmacodynamic studies and safety assessments were implemented, including: an increased starting dose of 0.5 mg/kg/d with larger titration increments; a 168-day (24 week) duration of treatment, with continuous dosing via removal of the washout period; elimination of PK and drug concentration sampling; and, a reduced visit schedule.
This study was conducted at multiple sites. Up to 50 patients, eighteen years of age or older, with high-risk myelofibrosis were treated. The primary objectives included safety and tolerability, pharmacokinetics (PK; Phase 1/2A only) and spleen volume reduction (SVR). […] Key inclusion criteria included: high- or intermediate-2 risk myelofibrosis; per the Investigator's judgment have failed (refractory or resistant to, inadequately controlled by or intolerant of), or are not a candidate for, available approved therapy including ruxolitinib; platelet count≥100K/μL; and, circulating blasts ≤10%.
In the Phase 1/2a portion of the study, patients started at the presumed sub-therapeutic dose of 0.25 mg/kg/d. Dose-adjustments were made weekly (the lifespan of a human platelet) with dose-titration, either upward or downward, contingent on platelet values at the time of evaluation. Upward titrations were made in increments of 0.125 or 0.0625 mg/kg/d as shown below. Downward titrations were made in decrements of 50% of the current dose. […] The titration target platelet count expected to be associated with most efficacious therapeutic effect was ≥50,000 to <100,000/μL (50-100×10^9/L). The Phase 1/2a titration and re-challenge rules based on weekly evaluation of platelet counts are noted below in Table 1.
All but one patient had received one or more prior treatments including ruxolitinib. 48% had PMF, 33% PET-MF, 19% PPV-MF. The median patient age was 65 years (48-89) with 58% males. 48% were classified as high risk (IPSS), the remainder, intermediate risk-2. […] A substantial fraction of the patients had ≥3 mutations. Patients were treated daily for 12 weeks, in accordance with above starting dose and titration rules, followed by a washout period of up to 28 days. Starting platelet counts ranged from about 141 to about 1309 k/μL. Bone marrow biopsies and imaging studies of the abdomen were conducted prior to treatment and during the washout period after 12 weeks of dosing. Grading of myelofibrosis was performed centrally using the 2016 revised World Health Organization classification of myeloid neoplasia (Arber et al., 2016); image reading was also performed centrally. The Myeloproliferative Neoplasm Symptom Assessment Form (MPN-SAF) was self-administered at Baseline and weekly from Day 0 through the End of Study (EoS) Visit. Total symptom scores were derived from this tool. Patients for whom clinical benefit was demonstrable could resume treatment for additional 12-week cycles.

[3] = Non-clinical studies of acute toxicity; assay type: in vivo; settings: even at extremely high doses (human equivalent dose (HED) ˜20-40 mg/kg)
[4] = 13 patients with biopsies, Day 0 to Day 84 or EoT
[5] = of the 3 with Hb>10 g/dL at day 0, day 84
[6] = of the 6 transfusion-independent patients with Hb<10 g/dL
[7] = of the 9 transfusion-dependent patients, day 84

In the case of CN1CCN(C(=O)[C@H](CCCN[C@@H]2C[C@H]2c2ccc(F)cc2)NC(=O)c2ccc(-n3ccnn3)cc2)CC1 [Compound 1, N-[(2S)-5-{[(1R, 2S)-2-(4-fluorophenyl)cyclopropyl]amino}-1-(4-methylpiperazin-1-yl)-1-oxopentan-2-yl]-4-(1H-1,2,3-triazol-1-yl)benzamide, bis-tosylate salt], the “patients showing a decrease in some or all somatic mutations” value ([1]; 22 patients) is reported as 32%, the “patients with increased VAFs” value ([1]; 22 patients) is reported as 14% and the “patients with stable VAFs” value ([1]; 22 patients) is reported as 55%. The “progression to AML” value ([1]; human, in vivo) was “No progression to AML”, the new mutations ([1]; patients followed up to 550+ days) was “No new mutations identified” and the “patients whose bone marrow fibrosis progressed by 1 Grade” value [2, 4] was 23%. For the same compound, the “patients with a stable bone marrow fibrosis score” value [2, 4] was 62%, the “patients with bone marrow fibrosis improvement of ≥1 grade” value [2, 4] was 15% and the “28 days expressed in half-lives of the drug” value ([2]; at the doses used in this study) was > 10 half-lives. For the same compound, the “spleen volume response (SVR) and total symptom score (TSS) compared with Best Available Treatment (BAT)” value ([2]; day 0 to day 84, BAT as in PERSIST-2 trial, FIG. 3) was “outperformed the BAT”, the “effect on myelofibrosis symptoms” value ([2]; evaluable patients N=14, preliminary analysis) was “profound effect” and the “range of total daily dose needed to achieve a platelet count in the target range” value ([2]; excluding highest and lowest doses) was 53 to 90 mg. For the same compound, the “mean total daily dose needed to achieve a platelet count in the target range” value ([2]; excluding highest and lowest doses (4 mg and 100 mg), target 50,000-75,000 platelets per microliter, S.D. 13.8) was 78.3 mg, the “mean therapeutic dose per body weight” value ([2]; first sixteen patients, assuming an average weight of 75 kg) was 0.85 mg/kg/day and the “overall efficacy on spleen volumes and symptom scores” value ([2]; heterogeneous population of MF patients with limited therapeutic options) was “effective in reducing spleen volumes and substantially improving symptom scores in a majority of patients”. The “improvements in symptom scores” value ([2]; human, in vivo) was “generally dose-dependent and rapid”, the “levels of CCL3, IL-6, IL-10, IL-33, IL-28A, IFNβ, IFNα, IFNγ” value ([2]; in the course of treatment) was “not elevated in any patient” and the “patients with improved Hb (increase of Hb>1 g/dL)” value [2, 5] was 1 patients. The “patients with worsened Hb (decrease of Hb>1 g/dL)” value [2, 5] was 2 patients, the “patients who remained stable (Hb)” value [2, 6] was 3 patients and the “patients who worsened (became transfusion dependent or Hb drop by >1 g/dL)” value [2, 6] was 2 patients. The “patients with improved Hb” value [2, 6] was 1 patients, the “patients who became transfusion-independent and had improved Hb of >1 g/dL” value ([2]; of the 9 transfusion-dependent patients (Hb<10 g/dL), day 84) was 1 patients and the “patients who maintained stable transfusion frequency” value [2, 7] was 8 patients. For the same compound, the “patients with increased transfusion frequency” value [2, 7] was “one”, the lymphocytes counts ([2]; on treatment) was “unchanged” and the monocyte counts ([2]; on treatment) was “generally modestly elevated”. For the same compound, the peripheral granulocyte counts ([2]; on treatment) was “lower”, the platelet counts ([2]; on treatment) was “reduced platelet counts in all patients” and the “mean dose needed to achieve and safely maintain the target platelet count (therapeutic dose)” value ([2]; re-analysis of first sixteen patients) was 63.8 mg/day. The “platelet counts after cessation of treatment” value ([2]; reversibility of the anti-thrombopoietic effect) was “rebounded robustly”, the “percent of F-cells (fetal hemoglobin containing erythrocytes)” value ([2]; six patients, FIG. 10) was “reduced the percent of F-cells” and the “patients with reduction in symptom score (MPN-10)” value ([2]; week 12) was 79%. For the same compound, the “patients with reduction in symptom score by ≥50%” value ([2]; week 12) was 21%, the “inflammatory cytokine S100A9” value ([2]; week 12, FIG. 4) was “generally decreased” and the “inflammatory cytokine RANTES” value ([2]; week 12, FIG. 5) was “generally decreased”. The “inflammatory cytokine IL-8” value ([2]; week 12, FIG. 6) was “generally decreased”, the “circulating growth factor VEGF” value ([2]; week 12, FIG. 7) was “generally decreased” and the “circulating growth factor PDGF-BB” value ([2]; week 12, FIG. 8) was “generally decreased”. For the same compound, the “patients with a decrease in spleen volume” value ([2]; week 12, evaluable N=14) was 50%, the “patients with a decrease in spleen volume” value ([2]; week 24) was 75% and the “patients with a decrease in spleen volume by 35%” value ([2]; week 24) was 12.5%. For the same compound, the “patients with a decrease in symptom score” value ([2]; week 24) was 89%, the “patients with a decrease in symptom score by ≥50%” value ([2]; week 24) was 44% and the “patients with improved scores of fatigue” value ([2]; within 14 days, at the lowest two doses) was 8 of the first 16 patients. The “acute toxicity in non-clinical studies” value [3] was “no evidence”.
